# Laboratory results as given in patent publication US9850218B2, “Thiazole compounds, compositions and methods for treatment of degenerative diseases and disorders” (MUSC FOUNDATION FOR RESEARCH DEVELOPMENT, priority 2013, dated 2017).
# Columns and labels:
# 661W or C6 cells [1] = assay: XF FCCP-uncoupled oxygen consumption rate assay (IBMX treatment); assay type: cell-based; conditions: for activity at 1 µM: 1 uM compound
# Description: The XF FCCP-uncoupled oxygen consumption rate assay assesses mitochondrial capacity by measuring cellular respiration. It was shown that the maximum FCCP-uncoupled oxygen consumption rate (OCR) was a good estimate of maximal mitochondrial capacity (Beeson 2010) and that IBMX treatment of 661W or C6 cells for 24 h caused a loss in maximal uncoupled OCR (Perron 2013). Thus, cells were pretreated with the exemplified compounds for 1 h, added 600 μM IBMX and then measured the uncoupled rate after 24 h. The OCR measurements were performed using a Seahorse Bioscience XF instrument (Seahorse Bioscience, Billerica, Md.), as previously published (Perron 2013). O2 leakage through the plastic sides and bottom of the plate was accounted for using the AKOS algorithm in the XF software package. Cells were plated on 96- or 24-well custom plates designed for use in the XF and grown to confluency in DMEM+5% FBS (48 h). The medium was then replaced with DMEM+1% FBS for 24 h, along with any treatments.
# 661W or C6 cells [2] = assay: MTT assay: protection against calcium-ionophore A23187; assay type: cell-based; conditions: for viability at 1 µM: 1 μM compound; for viability at 0.5 µM: 500 nM compound; for viability at 0.1 µM: 100 nM compound; for viability at 0.0008 µM: 800 pM compound
# Description: The compound 3-(4,5-Dimethylthiazol-2-yl)-2,5-diphenyltetrazolium bromide (MTT) is a tetrazolium ion that is reduced to a blue formazan dye via several families of NAD(P)H-dependent oxidoreductases. Formation of the formazan dye from MTT or other related tetrazolium dyes are commonly used as a viability assay even though, in fact, the assay is a metabolic capacity assay.
# In this assay, 661W or C6 cells were maintained in DMEM supplemented with 10% FBS. 100 μl, of 70,000 cells/mL cells were seeded into each well of 96 well plates using DMEM supplemented with 5% FBS. Cells were then allowed to grow to confluency for 48 hours. The compounds of the invention were added in 2 μL media and calcium-ionophore A23187 was then added in 1 μL for a final concentration of 1 μM and after 24 h, 20 uL of 2 μg/mL MTT were added to each well and the cells were incubated for another 4 h after which 100 μL of 1% SDS in 0.01 M aqueous HCl were added to each well and the plates were incubated overnight. Absorbance was measured at 640 and 570 nM (background correction). The 1 μM ionophore A23187 caused about 50% loss in MTT signal at 24 h. Protection was calculated as the increase in absorbance of treatment groups normalized to the vehicle control.
# [3] = 1 h pretreatment, 600 μM IBMX, 24 h, read-out: XF FCCP OCR (% Ctrl, concentration)
# [4] = 1 μM A23187, 24 h, read-out: MTT Protection (%, concentration)
Compound,activity at 1 µM (661W or C6 cells [1]; [3]),viability at 0.1 µM (661W or C6 cells [2]; [4]),other results
"O=C(Nc1ccccc1)c1sc(-c2ccccc2)nc1-c1ccccc1 [Example 3, N,2,4-Triphenylthiazole-5-carboxamide]",72%,–,viability at 1 µM (661W or C6 cells [2]; [4]): 47%
"CCOC(=O)c1sc(-c2ccccc2)nc1-c1ccccn1 [Example 9, Ethyl 2-phenyl-4-(pyridin-2-yl)thiazole-5-carboxylate]",–,–,"activity at 10 µM (661W or C6 cells [1]; 10 uM compound, 1 h pretreatment, 600 μM IBMX, 24 h, read-out: XF FCCP OCR (% Ctrl, concentration)): 71%; viability at 10 µM (661W or C6 cells [2]; 10 μM compound, 1 μM A23187, 24 h, read-out: MTT Protection (%, concentration)): 98%"
"O=C(O)c1sc(-c2ccccn2)nc1-c1ccccc1 [Example 11, 4-Phenyl-2-(pyridin-2-yl)thiazole-5-carboxylic acid]",76%,–,viability at 0.5 µM (661W or C6 cells [2]; [4]): 71.7%
"CCOC(=O)c1sc(-c2ccc(OC)cc2)nc1-c1ccccc1 [Example 5, Ethyl 2-(4-methoxyphenyl)-4-phenylthiazole-5-carboxylate]",82%,69%,–
"CNc1ccc2oc(C[C@H]3O[C@@]4(CC[C@H]3C)O[C@H]([C@H](C)C(=O)c3ccc[nH]3)[C@H](C)C[C@H]4C)nc2c1C(=O)O [Example A23187, reference compound]",–,–,"loss in MTT signal (661W or C6 cells [2]; 1 μM ionophore A23187 alone, at 24 h): about 50%"
"O=C(Nc1ccccc1Nc1ccccc1)c1sc(-c2ccccn2)nc1-c1ccccc1 [Example 12, 4-Phenyl-N-(2-(phenylamino)phenyl)-2-(pyridin-2-yl)thiazole-5-carboxamide]",71%,–,viability at 0.0008 µM (661W or C6 cells [2]; [4]): 57.2%
"COCCN(C)C(=O)c1sc(-c2ccccc2)nc1-c1ccccc1 [Example 6, N-(2-methoxyethyl)-N-methyl-2,4-diphenylthiazole-5-carboxamide]",81%,78.4%,–
"CCOC(=O)c1sc(-c2ccccn2)nc1-c1ccccc1 [Example 7, Ethyl 4-phenyl-2-(pyridin-2-yl)thiazole-5-carboxylate]",75%,–,viability at 1 µM (661W or C6 cells [2]; [4]): 88%
"O=C(O)c1sc(-c2ccccc2)nc1-c1ccccc1 [Example 2, 2,4-Diphenylthiazole-5-carboxylic acid]",77%,40%,–
"CC(C)Cn1c(=O)n(C)c(=O)c2[nH]cnc21 [IBMX, reference compound]",–,–,"decrease in the uncoupled rate (661W or C6 cells [1]; IBMX treatment alone (600 μM, 24 h)): ~50%"
"COc1ccc(NC(=O)c2sc(-c3ccccc3)nc2-c2ccccc2)cc1 [Example 8, N-(4-methoxyphenyl)-2,4-diphenylthiazole-5-carboxamide]",73%,–,viability at 0.0008 µM (661W or C6 cells [2]; [4]): 67.3%
"CCOC(=O)c1sc(-c2ccncc2)nc1-c1ccccc1 [Example 10, Ethyl 4-phenyl-2-(pyridin-4-yl)thiazole-5-carboxylate]",70%,–,viability at 0.5 µM (661W or C6 cells [2]; [4]): 88%
"O=C(Nc1ccc(F)cc1)c1sc(-c2ccccc2)nc1-c1ccccc1 [Example 4, N-(4-fluorophenyl)-2,4-diphenylthiazole-5-carboxamide]",83%,64.1%,–
"CCOC(=O)c1sc(-c2ccccc2)nc1-c1ccccc1 [Example 1, Ethyl 2,4-diphenylthiazole-5-carboxylate]",71%,48%,–
